The values that follow come from paper PMC9262797, “Spectrum and characterization of bi-allelic variants in MMAB causing cblB-type methylmalonic aciduria” (Human Genetics, 2021).

In series [1] the target is T1, MMAB (recombinant human MMAB, amino acids 56–250) (Homo sapiens, UniProt Q96EY8).
T1 construct: N-terminally truncated residues 56-250, mitochondrial leader omitted; homotrimer, native mass 78 kDa by SEC
T1 sequence (Q96EY8 56-250): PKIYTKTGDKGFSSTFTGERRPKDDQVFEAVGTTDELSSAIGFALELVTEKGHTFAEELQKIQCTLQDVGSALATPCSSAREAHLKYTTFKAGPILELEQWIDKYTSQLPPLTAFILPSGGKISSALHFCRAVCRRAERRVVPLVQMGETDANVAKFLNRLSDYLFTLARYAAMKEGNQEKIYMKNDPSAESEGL
Description: isothermal titration calorimetry. The class given is binding.

For series [2], the target named is T1, MMAB (recombinant human MMAB, amino acids 56–250). Briefly: fluorescence titration (MMAB into […] MANT-ATP, ex […] / em […] nm). It is filed as binding.
Series [3] concerns the molecule itself. Briefly: SEC; analytical gel filtration, Superose 6 Increase 10/300 GL, Buffer A (100 mM HEPES pH 7.5, 300 mM KCl, 250 µM MgCl2, 5% glycerol); 100 µl of protein at 25 µM; calibrated with 29, 150 and 443 kDa standards.

`Nc1ncnc2c1ncn2[C@@H]1O[C@H](COP(=O)(O)OP(=O)(O)OP(=O)(O)O)[C@@H](O)[C@H]1O` [ATP]: the Kd (as a rule, the equilibrium constant for the complex coming apart) in series [1] was 14.2 ± 0.6 µM.
For the molecule `CNc1ccccc1C(=O)O[C@H]1[C@@H](O)[C@H](n2cnc3c(N)ncnc32)O[C@@H]1CO[P@@](=O)(O)O[P@](=O)(O)OP(=O)(O)O` [MANT-ATP, 2',3'-O-(N-Methyl-anthraniloyl)-adenosine-5'-triphosphate], in series [2], the Kd was 21.1 ± 3.4 µM.

B1: human methylmalonyl-CoA mutase (MMUT) (enzyme, UniProt P22033 33-750, looked up)
chain: LHQQQPLHPEWAALAKKQLKGKNPEDLIWHTPEGISIKPLYSKRDTMDLPEELPGVKPFTRGPYPTMYTFRPWTIRQYAGFSTVEESNKFYKDNIKAGQQGLSVAFDLATHRGYDSDNPRVRGDVGMAGVAIDTVEDTKILFDGIPLEKMSVSMTMNGAVIPVLANFIVTGEEQGVPKEKLTGTIQNDILKEFMVRNTYIFPPEPSMKIIADIFEYTAKHMPKFNSISISGYHMQEAGADAILELAYTLADGLEYSRTGLQAGLTIDEFAPRLSFFWGIGMNFYMEIAKMRAGRRLWAHLIEKMFQPKNSKSLLLRAHCQTSGWSLTEQDPYNNIVRTAIEAMAAVFGGTQSLHTNSFDEALGLPTVKSARIARNTQIIIQEESGIPKVADPWGGSYMMECLTNDVYDAALKLINEIEEMGGMAKAVAEGIPKLRIEECAARRQARIDSGSEVIVGVNKYQLEKEDAVEVLAIDNTSVRNRQIEKLKKIKSSRDQALAERCLAALTECAASGDGNILALAVDASRARCTVGEITDALKKVFGEHKANDRMVSGAYRQEFGESKEITSAIKRVHKFMEREGRRPRLLVAKMGQDGHDRGAKVIATGFADLGFDVDIGPLFQTPREVAQQAVDADVHAVGISTLAAGHKTLVPELIKELNSLGRPDILVMCGGVIPPQDYEFLFEVGVSNVFGPGTRIPKAAVQVLDDIEKCLEKKQQSV
notes: methylmalonyl-CoA mutase (MMUT), human, recombinant; also called apo-MMUT; holo-MMUT; source: recombinant, produced as previously described (Plessl et al. 2017), purified
With B1, in series [3], the stoichiometry N (commonly a count of units in the complex or per binding partner) is 2.

B2: human ATP:cob(I)alamin adenosyltransferase (MMAB), amino acids 56-250 (enzyme, UniProt Q96EY8 56-250, looked up)
chain: PKIYTKTGDKGFSSTFTGERRPKDDQVFEAVGTTDELSSAIGFALELVTEKGHTFAEELQKIQCTLQDVGSALATPCSSAREAHLKYTTFKAGPILELEQWIDKYTSQLPPLTAFILPSGGKISSALHFCRAVCRRAERRVVPLVQMGETDANVAKFLNRLSDYLFTLARYAAMKEGNQEKIYMKNDPSAESEGL
notes: ATP:cob(I)alamin adenosyltransferase (MMAB), human, N-terminally truncated, amino acids 56-250; same residues as in the human MMAB structure of Campanello et al. 2018; also called ATP:cobalamin adenosyltransferase; apo-MMAB; source: recombinant, produced as previously described (Plessl et al. 2017), purified
Turning to B2, the “stoichiometry N” value in series [3] amounted to 3.
